In publication PMC6222425, “Novel 5′-Norcarbocyclic Derivatives of Bicyclic Pyrrolo- and Furano[2,3-d]Pyrimidine Nucleosides” (Molecules : A Journal of Synthetic Chemistry and Natural …, 2018):
Where two headings read alike, the source gives them in different places.

How the values were obtained:
Format in all cases: cell-based
[1] = tested on: human noncancer cells hFF3 (fibroblasts); experiment: Cell viability analysis by MTT assay, normal hFF3 cells; settings: for IC50: normal cells, MTT, 48 h incubation, read-out: Antiproliferative activity, IC50, hHFF3; for Toxic effect on normal hFF3 cells: concentrations up to 100 μM
Protocol: (§1) The target compounds were tested on different lines of tumor cells, HuTu-80 (human duodenal cancer), B16 (mouse melanoma), A549 (human lung adenocarcinoma), KB-3-1 (human squamous cell carcinoma), HeLa (human squamous cell carcinoma of the cervix), as well as on human noncancer cells hFF3.
(§2) Human KB-3-1 epidermoid carcinoma cell line, human HeLa cervical epithelioid carcinoma cell line, human HuTu-80 duodenal cancer cells, human A549 lung carcinoma epithelial cells, mouse B16 melanoma cell line and human hFF3 fibroblast cells were obtained from the Russian Cell Culture Collection (St. Petersburg, Russia) and were cultured in DMEM (hFF3 cells in IMDM) supplemented with 10% (v/v) heat-inactivated fetal bovine serum, penicillin (100 U mL^−1), streptomycin (100 µg mL^−1) and amphotericin ([…]). Cells were maintained in a humidified atmosphere of 5% CO2 at 37 °C.
(§3) All compounds were dissolved in dimethylsulfoxide (DMSO) and stock solutions (10 mmol L^−1) were stored at −20 °C.
(§4) Cells growing in the logarithmic phase were seeded in triplicate in 96-well plates at a density of 5 × 10^3 cells per well for HeLa and HuTu-80 cells, 7 × 10^3 cells per well for KB-3-1 and hFF3, 10 × 10^3 for A549 and 20 × 10^3 for B16. The plates were incubated at 37 °C in a humidified 5% CO2 atmosphere. Cells were allowed to adhere to the surface for 24 h and then tested compounds were added at different concentrations and incubation was continued for 48 h. Then [3-(4,5-dimethylthiazol-2-yl)-2,5-diphenyltetrazolium bromide] (MTT) solution (10 µL, 5 mg mL^−1) was added to each well and the incubation was continued for an additional 3 h. The dark blue formazan crystals formed within the healthy cells were solubilized with DMSO and the absorbance was measured using a Multiscan RC plate reader at 570 nm. The IC50 was determined as the compound concentration required to decrease the A570 to 50% compared to the control (no tested compounds, DMSO) and was determined by interpolation from dose-response curves.

[2] = tested on: HuTu-80 (human duodenal cancer) cells; experiment: Cell viability analysis by MTT assay, HuTu-80; settings: for IC50: Homo sapiens, HuTu80, MTT, 48 h incubation, read-out: Antiproliferative activity, IC50, HuTu80; for Selectivity index, HuTu80: ratio of IC50 on normal hFF3 cells to IC50 of HuTu80
Protocol: as §1, §2, §3, §4

[3] = tested on: A549 (human lung adenocarcinoma) cells; experiment: Cell viability analysis by MTT assay, A549; settings: for IC50: Homo sapiens, A549, MTT, 48 h incubation, read-out: Antiproliferative activity, IC50, A549; for Selectivity index, A549: ratio of IC50 on normal hFF3 cells to IC50 of A549
Protocol: as §1, §2, §3, §4

[4] = tested on: HeLa (human cervical epithelioid carcinoma) cells; experiment: Cell viability analysis by MTT assay, HeLa; settings: for IC50: Homo sapiens, HeLa, MTT, 48 h incubation, read-out: Antiproliferative activity, IC50, HeLa; for Selectivity index, HeLa: ratio of IC50 on normal hFF3 cells to IC50 of HeLa
Protocol: as §1, §2, §3, §4

[5] = tested on: KB-3-1 (human epidermoid carcinoma) cells; experiment: Cell viability analysis by MTT assay, KB-3-1; settings: for IC50: MTT, 48 h incubation, read-out: Antiproliferative activity, IC50, KB-3-1; for Selectivity index, KB-3-1: ratio of IC50 on normal hFF3 cells to IC50 of KB-3-1
Protocol: as §1, §2, §3, §4

tumor cells = experiment: Cell viability MTT assay, statements on the tumor cell panel as a whole; settings: concentrations up to 100 μM
Protocol: as §1, §2, §4

[6] = tested on: B16 (mouse melanoma) cells; experiment: Cell viability analysis by MTT assay, B16; settings: for IC50: MTT, 48 h incubation, read-out: Antiproliferative activity, IC50, B16; for Selectivity index, B16: ratio of IC50 on normal hFF3 cells to IC50 of B16
Protocol: as §1, §2, §3, §4

Structure (SMILES) | IC50 ([1]; Homo sapiens, HFF-3, 48 h) [µM] | Toxic effect on normal hFF3 cells [1] | IC50 [2] [µM] | IC50 [3] [µM] | IC50 [4] [µM] | IC50 ([5]; Homo sapiens, KB 3-1, 48 h) [µM] | Toxic effect on tumor cells (tumor cells) | IC50 ([6]; Mus musculus, 48 h) [µM] | Selectivity index, HuTu80 [2] | Selectivity index, A549 [3] | Selectivity index, HeLa [4] | Selectivity index, KB-3-1 [5] | IC50 [1] [µM] | IC50 [6] [µM] | Selectivity index, B16 [6] | IC50 [5] [µM]
CCCCCc1cc2cn(C3C=CC(O)C3)c(=O)nc2o1 (stereo not shown) [Compound 3b, 1-(4′-Hydroxy-2′-cyclopenten-1′-yl)-6-pentyl-3H-furano[2,3-d]-pyrimidine-2-one] | > 100 | no toxic effect | > 100 | > 100 | > 100 | > 100 | no toxic effect | > 100 | – | – | – | – | – | – | – | –
CCCc1cc2cn(C3C=CC(O)C3)c(=O)nc2[nH]1 (stereo not shown) [Compound 4a, 1-(4′-Hydroxy-2′-cyclopenten-1′-yl)-6-propyl-3H-pyrrolo[2,3-d]-pyrimidine-2-one] | > 100 | no toxic effect | > 100 | > 100 | > 100 | > 100 | no toxic effect | > 100 | – | – | – | – | – | – | – | –
CCCCCCc1cc2cn(C3C=CC(O)C3)c(=O)nc2[nH]1 (stereo not shown) [Compound 4c, 1-(4′-Hydroxy-2′-cyclopenten-1′-yl)-6-hexyl-3H-pyrrolo[2,3-d]-pyrimidine-2-one] | > 100 | – | 20.4 ± 3.9 | 35.2 ± 4.1 | 50.7 ± 6.2 | 25.6 ± 2.9 | – | > 100 | >4.9 | >2.8 | >1.9 | >3.9 | – | – | – | –
CCCCCCCCc1cc2cn(C3C=CC(O)C3)c(=O)nc2[nH]1 (stereo not shown) [Compound 4d, 1-(4′-Hydroxy-2′-cyclopenten-1′-yl)-6-octyl-3H-pyrrolo[2,3-d]-pyrimidine-2-one] | > 100 | – | 30.2 ± 2.9 | 100 | 20.1 ± 1.9 | 25.4 ± 3.1 | – | > 100 | >3.3 | – | >4.9 | >3.9 | – | – | – | –
CCCCCCCCCCc1cc2cn(C3C=CC(O)C3)c(=O)nc2[nH]1 (stereo not shown) [Compound 4e, 1-(4′-Hydroxy-2′-cyclopenten-1′-yl)-6-decyl-3H-pyrrolo[2,3-d]-pyrimidine-2-one] | 63 | – | 23.4 ± 7.8 | 36.2 ± 6.2 | 11 ± 2.1 | 18.4 ± 7.1 | – | 25 | 2.6 | 1.7 | 5.7 | 3.4 | 62.5 ± 8.3 | 25.1 ± 2.4 | 2.5 | –
CCCCCCCCCCCCc1cc2cn(C3C=CC(O)C3)c(=O)nc2[nH]1 (stereo not shown) [Compound 4f, 1-(4′-Hydroxy-2′-cyclopenten-1′-yl)-6-dodecyl-3H-pyrrolo[2,3-d]-pyrimidine-2-one] | 3.4 ± 0.7 | – | 3.1 ± 0.4 | 4.5 ± 0.2 | 3.2 ± 0.4 | 4.5 ± 0.9 | – | 3.1 ± 0.3 | 1.1 | 0.8 | 1 | 0.8 | – | – | 1.1 | –
O=c1nc2[nH]c(-c3ccccc3)cc2cn1C1C=CC(O)C1 (stereo not shown) [Compound 4g, 1-(4′-Hydroxy-2′-cyclopenten-1′-yl)-6-phenyl-3H-pyrrolo[2,3-d]-pyrimidine-2-one] | > 100 | not toxic | > 100 | 50.2 ± 6.7 | 90.2 ± 9.6 | 45.4 ± 5.3 | – | > 100 | – | >2 | >1.1 | >2.2 | – | – | – | –
CC(C)(C)c1ccc(-c2cc3cn(C4C=CC(O)C4)c(=O)nc3[nH]2)cc1 (stereo not shown) [Compound 4h, 1-(4′-Hydroxy-2′-cyclopenten-1′-yl)-6-(4-tertbutylphenyl)-3H-pyrrolo[2,3-d]-pyrimidine-2-one] | 70 | – | 25.4 ± 3.1 | 25.3 ± 2.9 | 25.8 ± 4.6 | 15 | – | 35 | 2.8 | 2.8 | 2.7 | 4.6 | 70.9 ± 9.1 | 35.6 ± 4.2 | 1.9 | 15.3 ± 1.1
CCCCCc1ccc(-c2cc3cn(C4C=CC(O)C4)c(=O)nc3[nH]2)cc1 (stereo not shown) [Compound 4i, 1-(4′-Hydroxy-2′-cyclopenten-1′-yl)-6-(4-pentylphenyl)-3H-pyrrolo[2,3-d]-pyrimidine-2-one] | 21.9 ± 4.8 | – | 8.5 ± 1.1 | 15.6 ± 4.1 | 11.1 ± 0.9 | 9.8 ± 0.7 | – | 13.4 ± 3.2 | 2.6 | 1.4 | 1.9 | 2.2 | – | – | 1.6 | –
CCCCCCCCCCc1cc2cn(C3CC(O)C(O)C3O)c(=O)nc2o1 (stereo not shown) [Compound 5, 1-(2′,3′,4′-Trihydroxycyclopent-1′-yl)-6-decyl-3H-furano[2,3-d]-pyrimidine-2-one] | > 100 | not toxic | > 100 | > 100 | 70.2 ± 8.9 | 50.3 ± 9.8 | – | > 100 | – | – | >1.4 | >2 | – | – | – | –
